Experiment: recombinant barcode read abundance after kanamycin selection (control-corrected) (log10(CPM+1)); higher = more efficient recombination; sequences stand for … in AGTGCAGAGAAAATCGGCCAGTTTTCTCTGCCTGCAGTCCGCATGCCGT…AGATTTATGCAGCGGACTGCCTTTCTCCCAAAGTGATAAACCGGACAGTATCATGGACCGGTTTTCCCGGTAATCCGTATTTGCAAGGTTGGTTTCACT; site = the 11-nt target
Experimental: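 Pooled E. coli target-specificity screen for the IS621 bridge recombinase. Each library plasmid pairs an 11-nt target (CT core) with a bridge RNA whose target-binding loop (9-nt LTG + 4-nt RTG) is reprogrammed; the rest of the 177-nt WT IS621 bridge RNA scaffold is fixed. The plasmid is co-electroporated with a WT donor plasmid; recombinase is induced with 0.1 mM IPTG and recombinants are selected on kanamycin. Recombinant barcodes are sequenced, converted to CPM, averaged over two biological replicates and corrected by the unselected control CPM. Molecule = full bridge RNA written as DNA: LTG = specificity nt 1-9, RTG = reverse complement of specificity nt 8-11, in the WT scaffold.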
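Also: IS621 recombinase and bridge RNA in Escherichia coli cells.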

Sequence	recombinant barcode read abundance (log10)
ACTAATCCTTGGGTTCTAACCTGTTGCTT (site ACTAATCCTAA)	0.236
ACTAATCCTTGGGTTCTAACCTGTTGCTT (site CCTAATACTAA)	0.105
ACTAGGACTTGGGTTCTAACCTGTTGCGA (site ACTAGGACTAC)	0.0787
ACTAGGACTTGGGTTCTAACCTGTTGCGA (site ACTAGGACTCC)	1.43
ACTAGGACTTGGGTTCTAACCTGTTGCGA (site ACTAGGACTGC)	0.0331
ACTAGGACTTGGGTTCTAACCTGTTGCGA (site ACTAGGACTTC)	2.27
ACTAGGTCTTGGGTTCTAACCTGTTGCTA (site ACTAGCTCTTA)	0.0718
ACTAGGTCTTGGGTTCTAACCTGTTGCTA (site ACTAGGTCTTA)	1.04
ACTAGTCCTTGGGTTCTAACCTGTTGCCT (site ACTAGTCCTAA)	0.233
ACTAGTCCTTGGGTTCTAACCTGTTGCCT (site ACTAGTCCTAC)	0.649
ACTAGTCCTTGGGTTCTAACCTGTTGCCT (site ACTAGTCCTAG)	0.337
ACTAGTCCTTGGGTTCTAACCTGTTGCCT (site ACTAGTCCTAT)	0.0393
ACTAGTGCTTGGGTTCTAACCTGTTGCCT (site AATAGTGCTAG)	0.111
ACTAGTGCTTGGGTTCTAACCTGTTGCCT (site ACTAGTGCTAG)	0.117
ACTAGTGCTTGGGTTCTAACCTGTTGCCT (site AGTAGTGCTAG)	0.0194
ACTAGTGCTTGGGTTCTAACCTGTTGCCT (site ATTAGTGCTAG)	0.0112
ACTCACTCTTGGGTTCTAACCTGTTGCCT (site ACTCACTCTAG)	2.04
ACTCACTCTTGGGTTCTAACCTGTTGCCT (site CGATCTCCTGT)	0.0794
ACTCGGCCTTGGGTTCTAACCTGTTGCGA (site ACTCGGCCTTC)	2.11
ACTCGGCCTTGGGTTCTAACCTGTTGCGA (site ACTGGGCCTTC)	0.172
ACTCGGCCTTGGGTTCTAACCTGTTGCGT (site ACTCGGCCTAC)	2.56
ACTCGGCCTTGGGTTCTAACCTGTTGCGT (site ACTCGGCCTAG)	0.0703
ACTCTAACTTGGGTTCTAACCTGTTGCTT (site ACTATAACTAA)	0.154
ACTCTAACTTGGGTTCTAACCTGTTGCTT (site ACTCTAACTAA)	0.121
ACTCTAACTTGGGTTCTAACCTGTTGCTT (site ACTGTAACTAA)	0.0269

Sequence	recombinant barcode read abundance (log10)
ACTCTAACTTGGGTTCTAACCTGTTGCTT (site ACTTTAACTAA)	0.0201
ACTGGTTCTTGGGTTCTAACCTGTTGCCG (site ACTGGTTCTCG)	0.696
ACTGGTTCTTGGGTTCTAACCTGTTGCCG (site TACTCACCTAA)	0.0451
ACTGTCACTTGGGTTCTAACCTGTTGCGG (site ACTGTCACTCC)	3.28
ACTGTCACTTGGGTTCTAACCTGTTGCGG (site GTGTATTCTAG)	0.046
ACTTAGACTTGGGTTCTAACCTGTTGCCT (site ACTTAGACTAG)	1.02
ACTTAGACTTGGGTTCTAACCTGTTGCCT (site ACTTAGACTCG)	0.313
ACTTAGACTTGGGTTCTAACCTGTTGCCT (site ACTTAGACTGG)	0.258
ACTTAGACTTGGGTTCTAACCTGTTGCCT (site ACTTAGACTTG)	0
ACTTAGACTTGGGTTCTAACCTGTTGCGG (site ACTTAGACTCC)	2.56
ACTTAGACTTGGGTTCTAACCTGTTGCGG (site TCTTAGACTCC)	0.416
ACTTAGCCTTGGGTTCTAACCTGTTGCCT (site ACTTAGCCTAG)	1.33
ACTTAGCCTTGGGTTCTAACCTGTTGCCT (site ACTTAGCCTAT)	0.0989
ACTTCCACTTGGGTTCTAACCTGTTGCCT (site ACTTCCACTAG)	0.613
ACTTCCACTTGGGTTCTAACCTGTTGCCT (site CCTTCCACTAG)	0.0483
ACTTCCACTTGGGTTCTAACCTGTTGCCT (site GCTTCCACTAG)	0.0573
ACTTCCACTTGGGTTCTAACCTGTTGCCT (site TCTTCCACTAG)	0.111
ACTTCTACTTGGGTTCTAACCTGTTGCTA (site ACATCTACTTA)	0.141
ACTTCTACTTGGGTTCTAACCTGTTGCTA (site ACTTCTACTTA)	0.0751
ACTTGAACTTGGGTTCTAACCTGTTGCCT (site ACATGAACTAG)	0.419
ACTTGAACTTGGGTTCTAACCTGTTGCCT (site ACCTGAACTAG)	0.0239
ACTTGAACTTGGGTTCTAACCTGTTGCCT (site ACGTGAACTAG)	0.146
ACTTGAACTTGGGTTCTAACCTGTTGCCT (site ACTTGAACTAG)	0.383
ACTTGAACTTGGGTTCTAACCTGTTGCTT (site ACTTGAACTAA)	0.0959
ACTTGAACTTGGGTTCTAACCTGTTGCTT (site ACTTTAGCTAA)	0.0785

Sequence	recombinant barcode read abundance (log10)
ACTTGAGCTTGGGTTCTAACCTGTTGCAT (site ACTTGAGCTAT)	1.36
ACTTGAGCTTGGGTTCTAACCTGTTGCAT (site TAGACTCCTTG)	0.232
ACTTTAACTTGGGTTCTAACCTGTTGCTT (site ACTATAACTAA)	0.185
ACTTTAACTTGGGTTCTAACCTGTTGCTT (site ACTCTAACTAA)	0.229
ACTTTAACTTGGGTTCTAACCTGTTGCTT (site ACTGTAACTAA)	0.0934
ACTTTAACTTGGGTTCTAACCTGTTGCTT (site ACTTTAACTAA)	0.217
ACTTTAGCTTGGGTTCTAACCTGTTGCAG (site ACATTAGCTTT)	0.056
ACTTTAGCTTGGGTTCTAACCTGTTGCAG (site ACTTTAGCTCT)	0.694
ACTTTGCCTTGGGTTCTAACCTGTTGCCT (site ACATTGCCTAG)	0.0554
ACTTTGCCTTGGGTTCTAACCTGTTGCCT (site ACCTTGCCTAG)	0.0879
ACTTTGCCTTGGGTTCTAACCTGTTGCCT (site ACGTTGCCTAG)	0.0319
ACTTTGCCTTGGGTTCTAACCTGTTGCCT (site ACTTTGCCTAG)	0.953
AGAAAGTCTTGGGTTCTAACCTGTTGCGT (site AGAAAGTCTAC)	2.36
AGAAAGTCTTGGGTTCTAACCTGTTGCGT (site AGAGAGTCTAG)	0.363
AGAAATACTTGGGTTCTAACCTGTTGCCG (site AGAAATACTCG)	1.07
AGAAATACTTGGGTTCTAACCTGTTGCCG (site GTCCTACCTTA)	0.0574
AGAACAACTTGGGTTCTAACCTGTTGCCT (site AGAACAACTAG)	0.388
AGAACAACTTGGGTTCTAACCTGTTGCCT (site AGCACAACTAG)	0.035
AGAACAACTTGGGTTCTAACCTGTTGCCT (site AGGACAACTAG)	0.456
AGAACAACTTGGGTTCTAACCTGTTGCCT (site AGTACAACTAG)	0.102
AGAACTACTTGGGTTCTAACCTGTTGCCA (site AGAACTACTTG)	0.0417
AGAACTACTTGGGTTCTAACCTGTTGCCA (site CTCGTGTCTAT)	0.0514
AGAAGTACTTGGGTTCTAACCTGTTGCGG (site AGAAGTACTCC)	1.86
